Experimental data: patent publication US20090264384A1, “INDOLE, BENZIMIDAZOLE, AND BENZOLACTAM BORONIC ACID COMPOUNDS, ANALOGS THEREOF AND METHODS OF USE THEREOF” (Nuada, Inc., priority 2004, published 2009)

Legend:
Phosphodiesterase 2(h) = target: T1, Phosphodiesterase 2(h) (Homo sapiens, UniProt O00408); assay: Phosphodiesterase 2(h) enzyme assay; type: biochemical; conditions: Phosphodiesterase 2(h)
T1 construct: differentiated U-; endogenous in cells; host or cells: differentiated U-937 cells
T1 sequence (O00408 whole entry): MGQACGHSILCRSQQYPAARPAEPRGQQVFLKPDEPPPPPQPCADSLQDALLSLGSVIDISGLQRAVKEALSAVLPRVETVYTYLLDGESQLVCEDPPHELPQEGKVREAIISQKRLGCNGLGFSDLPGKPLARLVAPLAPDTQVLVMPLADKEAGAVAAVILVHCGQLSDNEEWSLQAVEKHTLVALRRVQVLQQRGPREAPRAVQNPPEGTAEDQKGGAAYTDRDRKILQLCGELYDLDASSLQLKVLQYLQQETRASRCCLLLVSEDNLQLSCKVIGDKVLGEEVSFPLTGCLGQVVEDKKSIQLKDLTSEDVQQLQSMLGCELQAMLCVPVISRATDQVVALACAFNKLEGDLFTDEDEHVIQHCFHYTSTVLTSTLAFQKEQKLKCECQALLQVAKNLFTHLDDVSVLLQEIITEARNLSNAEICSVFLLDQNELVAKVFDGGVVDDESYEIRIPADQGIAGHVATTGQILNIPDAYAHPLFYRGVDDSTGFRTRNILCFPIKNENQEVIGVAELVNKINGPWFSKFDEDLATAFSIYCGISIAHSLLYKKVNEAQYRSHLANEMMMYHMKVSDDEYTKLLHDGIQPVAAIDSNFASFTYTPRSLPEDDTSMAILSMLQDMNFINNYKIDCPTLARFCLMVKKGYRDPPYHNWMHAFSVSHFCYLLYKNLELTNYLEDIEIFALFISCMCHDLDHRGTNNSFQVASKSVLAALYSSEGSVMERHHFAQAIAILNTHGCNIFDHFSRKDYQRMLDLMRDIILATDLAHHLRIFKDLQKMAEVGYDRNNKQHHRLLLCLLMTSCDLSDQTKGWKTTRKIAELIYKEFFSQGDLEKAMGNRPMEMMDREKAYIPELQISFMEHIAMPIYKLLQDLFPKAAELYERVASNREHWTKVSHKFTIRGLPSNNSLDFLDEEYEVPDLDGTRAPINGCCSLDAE

Tyrosine hydroxylase = target: T2, Tyrosine hydroxylase (Rattus norvegicus, UniProt P04177); assay: Tyrosine hydroxylase enzyme assay; type: biochemical; conditions: Tyrosine hydroxylase
T2 construct: rat striatum; from tissue; host or cells: rat striatum
T2 sequence (P04177 whole entry): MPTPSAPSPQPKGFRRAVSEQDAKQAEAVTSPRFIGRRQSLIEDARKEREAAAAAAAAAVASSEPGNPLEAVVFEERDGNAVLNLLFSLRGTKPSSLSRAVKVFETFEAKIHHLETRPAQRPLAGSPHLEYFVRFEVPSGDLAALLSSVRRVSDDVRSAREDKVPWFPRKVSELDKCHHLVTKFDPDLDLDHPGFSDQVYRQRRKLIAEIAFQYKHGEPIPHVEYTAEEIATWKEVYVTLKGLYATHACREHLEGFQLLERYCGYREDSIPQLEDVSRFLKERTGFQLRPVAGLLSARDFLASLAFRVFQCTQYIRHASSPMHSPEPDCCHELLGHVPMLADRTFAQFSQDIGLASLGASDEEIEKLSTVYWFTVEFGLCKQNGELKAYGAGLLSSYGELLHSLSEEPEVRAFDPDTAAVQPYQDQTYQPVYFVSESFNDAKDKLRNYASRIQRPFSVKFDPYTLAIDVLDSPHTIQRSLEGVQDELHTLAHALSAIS

H3 = H3 binding assay; set-up: species or system rat
GABA transaminase = target: T3, GABA transaminase (Rattus norvegicus, UniProt P50554); assay: GABA transaminase enzyme assay; type: biochemical; conditions: GABA transaminase
T3 construct: rat brain; from tissue; host or cells: rat brain
T3 sequence (P50554 28-500): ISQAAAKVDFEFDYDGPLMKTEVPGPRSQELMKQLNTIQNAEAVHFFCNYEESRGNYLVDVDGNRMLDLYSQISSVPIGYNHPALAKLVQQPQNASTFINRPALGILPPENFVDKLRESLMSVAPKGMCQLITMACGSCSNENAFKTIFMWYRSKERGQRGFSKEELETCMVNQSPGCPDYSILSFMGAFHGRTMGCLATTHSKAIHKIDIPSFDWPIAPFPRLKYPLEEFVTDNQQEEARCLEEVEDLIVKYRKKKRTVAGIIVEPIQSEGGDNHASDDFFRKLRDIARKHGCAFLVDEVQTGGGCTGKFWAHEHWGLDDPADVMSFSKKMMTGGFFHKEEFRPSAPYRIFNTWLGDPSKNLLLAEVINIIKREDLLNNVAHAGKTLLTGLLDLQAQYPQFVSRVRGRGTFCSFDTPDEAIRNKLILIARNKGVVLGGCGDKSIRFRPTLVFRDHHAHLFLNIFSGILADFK

DA transporter(h) = target: T4, DA transporter(h) (Homo sapiens, UniProt Q01959); assay: DA transporter(h) binding assay
T4 construct: expressed in transfected cells; host or cells: CHO cells
T4 sequence (Q01959 whole entry): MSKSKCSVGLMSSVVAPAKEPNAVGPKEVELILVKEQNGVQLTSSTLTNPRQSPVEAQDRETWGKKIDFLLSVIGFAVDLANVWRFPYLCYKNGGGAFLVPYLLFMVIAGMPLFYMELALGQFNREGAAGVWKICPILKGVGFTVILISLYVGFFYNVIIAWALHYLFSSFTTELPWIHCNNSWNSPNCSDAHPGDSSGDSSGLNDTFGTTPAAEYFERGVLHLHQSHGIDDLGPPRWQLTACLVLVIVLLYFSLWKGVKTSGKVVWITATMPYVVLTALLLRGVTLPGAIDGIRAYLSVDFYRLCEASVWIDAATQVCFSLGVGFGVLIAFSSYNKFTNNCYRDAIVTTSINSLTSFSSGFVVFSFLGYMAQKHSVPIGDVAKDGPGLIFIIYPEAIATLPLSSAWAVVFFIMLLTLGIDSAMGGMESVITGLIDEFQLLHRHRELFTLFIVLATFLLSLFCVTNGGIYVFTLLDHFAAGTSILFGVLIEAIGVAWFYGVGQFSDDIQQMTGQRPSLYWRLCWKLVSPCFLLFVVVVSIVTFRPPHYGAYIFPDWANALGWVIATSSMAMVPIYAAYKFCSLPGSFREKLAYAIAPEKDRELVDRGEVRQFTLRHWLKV

CRF1 = target: T5, CRF1 (Rattus norvegicus, UniProt P35353); assay: CRF1 binding assay; conditions: Hill coefficient, reference compound
T5 construct: from tissue; host or cells: rat pituitary gland
T5 sequence (P35353 24-415): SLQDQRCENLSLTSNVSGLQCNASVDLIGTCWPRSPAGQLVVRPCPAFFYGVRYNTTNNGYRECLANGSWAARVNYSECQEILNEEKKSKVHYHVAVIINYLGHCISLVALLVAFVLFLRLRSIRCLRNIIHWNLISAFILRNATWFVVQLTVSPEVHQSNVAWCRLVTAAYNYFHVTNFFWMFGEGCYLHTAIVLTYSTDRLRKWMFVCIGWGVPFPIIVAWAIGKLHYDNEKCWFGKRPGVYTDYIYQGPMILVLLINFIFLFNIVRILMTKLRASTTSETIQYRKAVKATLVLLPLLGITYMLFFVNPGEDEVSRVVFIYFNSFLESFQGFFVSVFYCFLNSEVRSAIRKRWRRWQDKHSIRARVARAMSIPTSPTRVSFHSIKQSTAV

[1] = target: Ca^2+ channel (L, verapamil site) (phenylalkylamines); assay: Ca^2+ channel (L, verapamil site) binding assay; set-up: species or system rat
GABA (non-selective) = type: binding, rat; conditions: Hill coefficient, reference compound
NK3(h) = target: T6, NK3(h) (Homo sapiens, UniProt P29371); assay: NK3(h) binding assay; conditions: Hill coefficient, reference compound
T6 construct: expressed in transfected cells; host or cells: CHO cells
T6 sequence (P29371 whole entry): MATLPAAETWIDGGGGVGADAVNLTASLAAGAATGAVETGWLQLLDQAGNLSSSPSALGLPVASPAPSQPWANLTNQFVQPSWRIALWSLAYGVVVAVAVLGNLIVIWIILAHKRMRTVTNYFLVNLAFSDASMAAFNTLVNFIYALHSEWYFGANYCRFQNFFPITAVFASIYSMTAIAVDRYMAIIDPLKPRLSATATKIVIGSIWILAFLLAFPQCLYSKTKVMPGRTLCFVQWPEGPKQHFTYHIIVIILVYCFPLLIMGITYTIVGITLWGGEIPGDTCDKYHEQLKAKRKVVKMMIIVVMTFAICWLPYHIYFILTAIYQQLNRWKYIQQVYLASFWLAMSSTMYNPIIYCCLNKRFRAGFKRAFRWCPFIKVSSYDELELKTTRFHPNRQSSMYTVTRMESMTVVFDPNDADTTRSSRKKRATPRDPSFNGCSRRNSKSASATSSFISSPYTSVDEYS

β1(h) = target: T7, β1(h) (Homo sapiens, UniProt P08588); assay: β1(h) binding assay; conditions: Hill coefficient, reference compound
T7 construct: expressed in transfected cells; host or cells: HEK-293 cells

M (non-selective) = M (non-selective) binding assay; set-up: species or system rat
H2(h) = target: T8, H2(h) (Homo sapiens, UniProt P25021); assay: H2(h) binding assay; conditions: Hill coefficient, reference compound
T8 construct: expressed in transfected cells; host or cells: CHO cells

BZD (central) = BZD (central) binding assay; set-up: species or system rat; conditions: Hill coefficient, reference compound
[2] = target: Ca^2+ channel (L, diltiazem site) (benzothiazepines) (Rattus norvegicus, UniProt P22002); assay: Ca^2+ channel (L, diltiazem site) binding assay
σ (non-selective) = σ (non-selective) binding assay; set-up: species or system rat
Choline transporter = target: T9, Choline transporter (Rattus norvegicus, UniProt Q9JMD7); assay: Choline transporter binding assay; conditions: reference compound
T9 construct: rat striatum; from tissue; host or cells: rat striatum
T9 sequence (Q9JMD7 1-580): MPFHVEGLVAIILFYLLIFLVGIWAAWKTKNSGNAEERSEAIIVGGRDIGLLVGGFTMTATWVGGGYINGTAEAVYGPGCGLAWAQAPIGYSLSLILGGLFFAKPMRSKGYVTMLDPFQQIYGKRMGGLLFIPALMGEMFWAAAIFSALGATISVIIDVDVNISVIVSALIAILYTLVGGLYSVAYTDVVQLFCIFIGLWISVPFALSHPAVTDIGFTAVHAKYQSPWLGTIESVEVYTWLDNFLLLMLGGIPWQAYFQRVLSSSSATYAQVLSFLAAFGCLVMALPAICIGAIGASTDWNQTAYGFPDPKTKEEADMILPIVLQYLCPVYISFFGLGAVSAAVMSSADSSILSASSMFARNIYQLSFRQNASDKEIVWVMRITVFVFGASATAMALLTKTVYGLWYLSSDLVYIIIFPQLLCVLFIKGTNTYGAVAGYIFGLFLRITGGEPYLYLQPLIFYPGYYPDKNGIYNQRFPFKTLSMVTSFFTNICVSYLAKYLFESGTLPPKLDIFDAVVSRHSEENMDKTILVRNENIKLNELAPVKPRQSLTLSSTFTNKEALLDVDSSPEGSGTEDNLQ

5-HT transporter(h) = target: T10, 5-HT transporter(h) (Homo sapiens, UniProt P31645); assay: 5-HT transporter(h) binding assay; conditions: Hill coefficient, reference compound
T10 construct: expressed in transfected cells; host or cells: HEK-293 cells

Androgen(h) (AR) = target: T11, Androgen(h) (AR) (Homo sapiens, UniProt P10275, T878A); assay: Androgen(h) (AR) binding assay
T11 construct: LNCaP cells; endogenous in cells; host or cells: LNCaP cells (cytosol)

[3] = target: N (neuronal) (α-BGTX-insensitive) (Rattus norvegicus, UniProt P09483+P12390); assay: N (neuronal) (α-BGTX-insensitive) binding assay; conditions: Hill coefficient, reference compound
Chain of N (neuronal) (α-BGTX-insensitive) (P09483 31-630): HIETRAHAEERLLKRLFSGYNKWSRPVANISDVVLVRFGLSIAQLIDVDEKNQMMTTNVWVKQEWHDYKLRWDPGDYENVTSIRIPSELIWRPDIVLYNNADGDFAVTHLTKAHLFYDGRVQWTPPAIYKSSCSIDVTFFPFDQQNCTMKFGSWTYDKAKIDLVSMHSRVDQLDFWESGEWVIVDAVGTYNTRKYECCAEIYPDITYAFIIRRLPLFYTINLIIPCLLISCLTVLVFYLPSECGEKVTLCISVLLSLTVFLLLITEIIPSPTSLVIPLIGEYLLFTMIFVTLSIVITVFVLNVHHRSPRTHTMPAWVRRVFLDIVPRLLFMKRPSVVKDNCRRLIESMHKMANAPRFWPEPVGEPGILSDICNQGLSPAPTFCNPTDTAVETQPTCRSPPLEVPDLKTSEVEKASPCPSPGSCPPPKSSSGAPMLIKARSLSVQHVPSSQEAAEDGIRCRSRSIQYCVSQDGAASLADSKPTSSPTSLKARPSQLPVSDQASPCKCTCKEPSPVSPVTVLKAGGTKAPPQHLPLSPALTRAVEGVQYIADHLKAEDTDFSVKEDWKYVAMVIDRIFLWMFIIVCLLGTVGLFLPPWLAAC
Chain of N (neuronal) (α-BGTX-insensitive) (P12390 25-500): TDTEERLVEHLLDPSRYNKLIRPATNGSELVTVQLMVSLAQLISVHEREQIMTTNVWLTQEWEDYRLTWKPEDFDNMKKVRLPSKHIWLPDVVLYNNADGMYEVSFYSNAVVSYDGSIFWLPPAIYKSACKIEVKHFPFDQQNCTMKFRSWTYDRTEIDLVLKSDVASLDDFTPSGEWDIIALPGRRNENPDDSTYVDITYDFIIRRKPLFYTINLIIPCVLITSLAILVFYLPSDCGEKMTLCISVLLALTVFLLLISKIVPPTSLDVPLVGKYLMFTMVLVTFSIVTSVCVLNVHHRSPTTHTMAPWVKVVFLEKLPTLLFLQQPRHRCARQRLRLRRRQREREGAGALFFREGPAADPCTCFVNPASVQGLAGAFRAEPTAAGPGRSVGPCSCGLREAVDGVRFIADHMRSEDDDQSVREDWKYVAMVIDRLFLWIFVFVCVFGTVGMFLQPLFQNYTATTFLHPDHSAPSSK

ATPase (Na^+/K^+) = target: T12, ATPase (Na^+/K^+) (Canis lupus familiaris, UniProt P50997); assay: ATPase (Na^+/K^+) enzyme assay; type: biochemical, dog; conditions: ATPase (Na^+/K^+)
T12 construct: dog kidney; from tissue; host or cells: dog kidney

Cl-channel = Cl-channel binding assay; set-up: species or system rat; conditions: Hill coefficient, reference compound
NE transporter(h) = target: T13, NE transporter(h) (Homo sapiens, UniProt P23975); assay: NE transporter(h) binding assay; conditions: Hill coefficient, reference compound
T13 construct: expressed in transfected cells; host or cells: MDCK cells

AT2(h) = target: T14, AT2(h) (Homo sapiens, UniProt P50052); assay: AT2(h) binding assay; conditions: Hill coefficient, reference compound
T14 construct: expressed in transfected cells; host or cells: Hela cells

AT1(h) = target: T15, AT1(h) (Homo sapiens, UniProt P30556); assay: AT1(h) binding assay; conditions: Hill coefficient, reference compound
T15 construct: expressed in transfected cells; host or cells: CHO cells

5-HT (non-selective) = 5-HT (non-selective) binding assay; set-up: species or system rat; conditions: Hill coefficient, reference compound
D2S(h) = target: T16, D2S(h) (Homo sapiens, UniProt P14416); assay: biochemical; type: binding
T16 construct: expressed in transfected cells; host or cells: CHO cells
T16 sequence (P14416 1-414 isoform P14416-2): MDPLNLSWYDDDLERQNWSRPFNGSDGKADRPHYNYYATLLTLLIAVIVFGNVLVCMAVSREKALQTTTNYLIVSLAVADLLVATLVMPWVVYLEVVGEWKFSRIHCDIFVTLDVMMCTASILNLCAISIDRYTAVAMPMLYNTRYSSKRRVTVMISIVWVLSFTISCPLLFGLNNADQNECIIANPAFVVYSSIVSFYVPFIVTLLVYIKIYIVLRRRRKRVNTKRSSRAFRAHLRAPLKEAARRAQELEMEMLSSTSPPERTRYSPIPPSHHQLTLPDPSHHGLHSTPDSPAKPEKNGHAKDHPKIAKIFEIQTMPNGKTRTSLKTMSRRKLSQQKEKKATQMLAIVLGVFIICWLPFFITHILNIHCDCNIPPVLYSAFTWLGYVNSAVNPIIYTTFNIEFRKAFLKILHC

V2(h) = target: T17, V2(h) (Homo sapiens, UniProt P30518); assay: V2(h) binding assay
T17 construct: expressed in transfected cells; host or cells: CHO cells

B2(h) = target: T18, B2(h) (Homo sapiens, UniProt P30411); assay: B2(h) binding assay
T18 construct: expressed in transfected cells; host or cells: CHO cells

Y (non-selective) = Y (non-selective) binding assay; set-up: species or system rat; conditions: reference compound
TRH = TRH binding assay; set-up: species or system rat; conditions: reference compound
NK2(h) = target: T19, NK2(h) (Homo sapiens, UniProt P21452); assay: NK2(h) binding assay
T19 construct: expressed in transfected cells; host or cells: CHO cells

NK1(h) = target: T20, NK1(h) (Homo sapiens, UniProt P25103); assay: NK1(h) binding assay; conditions: Hill coefficient, reference compound
T20 construct: NK1(h); U-373MG cells; [Sar^9,Met(O2)^11]-SP; Heuillet et al. (1993); endogenous in cells; host or cells: U-373MG cells

ETA(h) = target: T21, ETA(h) (Homo sapiens, UniProt P25101); assay: ETA(h) binding assay
T21 construct: expressed in transfected cells; host or cells: CHO cells

ETB(h) = target: T22, ETB(h) (Homo sapiens, UniProt P24530); assay: ETB(h) binding assay; conditions: Hill coefficient, reference compound
T22 construct: expressed in transfected cells; host or cells: CHO cells

K^+V channel = K^+V channel binding assay; set-up: species or system rat

CCCCCC[C@@H]([C@@H](C)O)n1cnc2c(N)ncnc21 (racemic) [EHNA]
nH (Phosphodiesterase 2(h); Hill coefficient): 0.4 | IC50 (Phosphodiesterase 2(h); reference compound): 4100 nM

N[C@@H](Cc1ccc(O)c(I)c1)C(=O)O [3-iodo L-tyrosine]
nH (Tyrosine hydroxylase; Hill coefficient): 1.1 | IC50 (Tyrosine hydroxylase; reference compound): 990 nM

C[C@@H](N)Cc1cnc[nH]1 [(R)a-Me-histamine, (R)α-Me-histamine, reference compound]
nH (H3): 1.0

NOCC(=O)O [AoAA]
nH (GABA transaminase; Hill coefficient): 1.1 | IC50 (GABA transaminase; reference compound): 210 nM

c1ccc2sc(C3(N4CCCCC4)CCCCC3)cc2c1 [BTCP, reference compound]
nH (DA transporter(h)): 0.5

CC[C@H](C)[C@H](NC(=O)[C@@H](NC(=O)[C@H](CCC(=O)O)NC(=O)[C@H](CCSC)NC(=O)[C@H](CC(C)C)NC(=O)[C@H](CCCCN)NC(=O)[C@H](CCCNC(=N)N)NC(=O)[C@H](CC(N)=O)NC(=O)[C@H](CO)NC(=O)[C@H](Cc1c[nH]cn1)NC(=O)[C@H](C)NC(=O)[C@H](CCC(N)=O)NC(=O)[C@H](CCC(N)=O)NC(=O)[C@H](C)NC(=O)[C@H](CC(C)C)NC(=O)[C@H](CCC(N)=O)NC(=O)[C@H](CCC(=O)O)NC(=O)[C@H](C)NC(=O)[C@H](CCCNC(=N)N)NC(=O)[C@H](C)NC(=O)[C@H](CCSC)NC(=O)[C@H](CCC(=O)O)NC(=O)[C@H](CC(C)C)NC(=O)[C@@H](NC(=O)[C@H](CCC(=O)O)NC(=O)[C@H](CCCNC(=N)N)NC(=O)[C@H](CC(C)C)NC(=O)[C@H](CC(C)C)NC(=O)[C@H](Cc1c[nH]cn1)NC(=O)[C@H](Cc1ccccc1)NC(=O)[C@@H](NC(=O)[C@H](CC(C)C)NC(=O)[C@H](CC(=O)O)NC(=O)[C@H](CC(C)C)NC(=O)[C@H](CO)NC(=O)[C@@H](NC(=O)[C@@H]1CCCN1C(=O)[C@@H]1CCCN1C(=O)[C@H](CCC(=O)O)NC(=O)[C@H](CCC(=O)O)NC(=O)[C@@H](N)CO)[C@@H](C)CC)[C@@H](C)O)C(C)C)[C@@H](C)CC)C(N)=O [CRF, reference compound]
nH (CRF1): 0.6

COc1ccc(CCN(C)CCCC(C#N)(c2cc(OC)c(OC)c(OC)c2)C(C)C)cc1OC (stereo not shown) [D 600]
Ki [1]: 0.84 nM | nH [1]: 0.6

NCCCC(=O)O [GAGA, GABA, reference compound]
nH (GABA (non-selective)): 1.3

CC[C@H](NC(=O)c1c(C)c(-c2ccccc2)nc2ccccc12)c1ccccc1 [SB 222200, reference compound]
nH (NK3(h)): 1.1

CC(C)NCC(O)COc1ccc(CC(N)=O)cc1 (stereo not shown) [atenolol, reference compound]
nH (β1(h)): 0.7

CN1[C@@H]2CC[C@H]1C[C@@H](OC(=O)C(CO)c1ccccc1)C2 (stereo partly shown) [atropine, reference compound]
nH (M (non-selective)): 1.2

CN/C(=N/CCSCc1nc[nH]c1C)NC#N [cimetidine, reference compound]
nH (H2(h)): 0.9

CN1C(=O)CN=C(c2ccccc2)c2cc(Cl)ccc21 [diazepam, reference compound]
nH (BZD (central)): 1.2

COc1ccc([C@@H]2Sc3ccccc3N(CCN(C)C)C(=O)[C@@H]2OC(C)=O)cc1 [diltiazem, reference compound]
nH [2]: 0.9

O=C(CCCN1CCC(O)(c2ccc(Cl)cc2)CC1)c1ccc(F)cc1 [haloperidol, reference compound]
nH (σ (non-selective)): 0.6

C[N+]1(C)CCOC(O)(c2ccc(-c3ccc(C4(O)C[N+](C)(C)CCO4)cc3)cc2)C1.[Br-].[Br-] (stereo not shown) [hemicholinium-3]
nH (Choline transporter; Hill coefficient): 0.7 | IC50 (Choline transporter): 8 nM | Ki (Choline transporter; Cheng Prusoff): 5.5 nM

CN(C)CCCN1c2ccccc2CCc2ccccc21 [imipramine, reference compound]
nH (5-HT transporter(h)): 1.0

C[C@]1(O)CC[C@H]2[C@@H]3CCC4=CC(=O)CCC4=C3C=C[C@@]21C [methyltrienolone, reference compound]
nH (Androgen(h) (AR)): 1.5

CN1CCCC1c1cccnc1 (stereo not shown) [nicotine, reference compound]
nH [3]: 1.1

C[C@@H]1O[C@@H](O[C@H]2C[C@@H](O)[C@]3(CO)[C@H]4[C@H](O)C[C@]5(C)[C@@H](C6=CC(=O)OC6)CC[C@]5(O)[C@@H]4CC[C@]3(O)C2)[C@H](O)[C@H](O)[C@H]1O [ouabain]
nH (ATPase (Na^+/K^+); Hill coefficient): 1.2 | IC50 (ATPase (Na^+/K^+); reference compound): 920 nM

C=C(C)[C@@H]1[C@H]2OC(=O)[C@@H]1[C@]1(O)C[C@H]3O[C@]34C(=O)O[C@H]2[C@]14C [picrotoxinin, reference compound]
nH (Cl-channel): 0.9

CNCCCC1c2ccccc2C=Cc2ccccc21 [protriptyline, reference compound]
nH (NE transporter(h)): 1.7

CNCC(=O)N[C@@H](CCCN=C(N)N)C(=O)N[C@H](C(=O)N[C@@H](Cc1ccc(O)cc1)C(=O)N[C@H](C(=O)N[C@@H](Cc1cnc[nH]1)C(=O)N1CCC[C@H]1C(=O)N[C@@H](C)C(=O)O)C(C)C)C(C)C [saralasin, reference compound]
nH (AT2(h)): 0.8 | nH (AT1(h)): 1.1

NCCc1c[nH]c2ccc(O)cc12 [serotonin, reference compound]
nH (5-HT (non-selective)): 0.9

(+)butaclamol [reference compound]
nH (D2S(h)): 1.2

AVP [reference compound]
nH (V2(h)): 0.9

NPC 567 [reference compound]
nH (B2(h)): 0.6

NPY
nH (Y (non-selective); Hill coefficient): 1.3 | IC50 (Y (non-selective)): 0.99 nM

TRH
nH (TRH; Hill coefficient): 0.9 | IC50 (TRH): 49 nM | Ki (TRH; Cheng Prusoff): 30 nM

[N1e^10]-NKA(4-10) [reference compound]
nH (NK2(h)): 0.7

[Sar^9,Met(O2)^11]-SP [reference compound]
nH (NK1(h)): 0.9

endothelin-1 [endothelia-1, reference compound]
nH (ETA(h)): 1.1

endothelin-3 [endothelia-3, reference compound]
nH (ETB(h)): 2.4

α-dendrotoxin
Ki (K^+V channel): 1.1 nM | nH (K^+V channel): 3.1
